Experimental data: patent US12577559B2, “Method for creating a cDNA sequencing library” (priority 2019, dated 2026)

Tested on: A549 cell line
Test: RIF-Seq gene expression screen of compounds in A549 cells, 384 well plate
Type: cell-based
Experimental: To evaluate if RIF-Seq can be used to detect changes in gene expression due to action of compounds (drugs) and if gene expression signatures can be used to predict mechanism of action of the compound, the inventors performed screen of two compounds in various concentration (delivered to cells in DMSO) and controls (DMSO alone) in high throughput fashion on automated platforms. A549 cell line was seeded using automatic cell dispenser onto low volume imaging plate to concentration of 2 000 cell per well. After over-night incubation, drugs were manually added to cells according to schematics presented in the FIG. 16A, cells were fixated and RIF-Seq protocol was executed using automated robotic liquid handlers. […] Using Gene Set Enrichment Analysis (GESA) inventors compared the differential gene expression data of samples treated with 8.3 μM vorinostat and controls and which differently expressed genes are annotated to pre-defined gene sets contained in the Broad Institute “Hallmarks” list (FIG. 16D).
Cells were cultured in T25 and T75 cell culturing flasks at 37° C. under 5% CO2 in RPMI1640 medium (HeLa, BjHTERT, MCF-7) or F12K medium (A549) with 10% complete fetal bovine serum (FBS), penicillin-streptomycin, and glutamine, up to 80% confluency. Before seeding cells into plates, cells were washed with PBS and dislodged using Tripsin-EDTA and resuspended in fresh medium to a concentration of 66 cells/μL. Manually (100 μL volume, 96 well plate) or by using automatic cell dispenser (30 μL volume, 384 well plate) cells were transferred into desired vessels and incubated over-night. For 96 well plates, the cell culture media were removed and plate was washed twice with 100 μl cold PBS in each well. Then 100 μl 3.7% PFA solution was added to each well and incubated at room temperature for 15 min. For 384 well plates, […] of freshly prepared 16% formaldehyde was added to 30 μl of cell media to obtain a final formaldehyde concentration of 3.7%. Fixation was performed for 20 minutes at room temperature. […]

Structure (SMILES): O=C(CCCCCCC(=O)Nc1ccccc1)NO [vorinostat]
- Volcano plot of genes over- and under-expressed upon treatment (8.3 μM concentration vs DMSO controls): number of genes with significantly altered expression
- Gene Set Enrichment Analysis (GESA) of differential gene expression against Broad Institute "Hallmarks" gene sets (8.3 μM vorinostat vs DMSO controls): down-regulation of the cell cycle and p53 pathways, E2F targets, cell cycle checkpoints and MYC targets
- PCA analyses of gene expression of compound-grouped samples vs DMSO controls (various concentrations): Gradient of differences
